Assay results from US11471462B2, “Compositions and methods for detecting and treating diabetes” (THE BROAD INSTITUTE, INC., priority 2016, dated 2022).
Like-named read-outs stand apart in the source and are kept apart here.

Assays:
SLC16A11 [1] = assay: Compound treatment, SLC16A11 expression by ddPCR in SNU761 cells; type: cell-based, human; settings: SNU761 cells
Summary of the method: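 SNU761 hepatocellular carcinoma cells, plated 24 h, treated with compounds at 10 μM final or vehicle, with treatment times matching the LINCS dataset. SLC16A11 mRNA quantified by TaqMan droplet digital PCR, normalized to TBP or HPRT1.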

SLC16A11 [2] = assay: Compound treatment, SLC16A11 expression by ddPCR in NCIH716 cells; type: cell-based, human; settings: same concentrations and treatment times as LINCS
Method: A small number of the compounds that made the strongest positive connections to the SLC16A11 gene expression signature were selected and tested. […] Methotrexate was also included, which had been annotated as a dihydrofolate reductase inhibitor. SNU761 cells (derived from a human hepatocellular carcinoma) and NCIH716 cells (derived from a human cecum adenocarcinoma), which both express SLC16A11, were treated with the compounds. The same compound concentrations and treatment times were used as in the LINCS dataset experiments. […] For normalization, a different housekeeper gene, HPRT1, was used and obtained similar results with the mTOR inhibitors (FIGS. 14A and 14B).
SNU761 (human hepatocellular carcinoma) and NCIH716 (human cecum adenocarcinoma) were cultured in RPMI Medium 1640 supplemented with 10% Fetal Bovine Serum (FBS), 100 μg/ml Streptomycin and 100 U/ml Penicillin. Cells were grown in a humidified CO2 incubator, at 37° C.
For the unbiased approach taken to investigate the compounds that connected to the SLC16A11 gene expression signature, compounds were obtained from compound management at the Broad Institute.
(§1) SNU761 and NCIH716 cells were plated into 96 well plates at a density of 20,000 cells per well. Hepatocytes were plated into collagen coated 96 well plates (Corning, 354408) at a density of 50,000 cells per well. After 24 hours, cells were treated with compounds at a final concentration of 10 μM or vehicle control for the appropriate amount of time.
At the time of collection, cells in 96 well plates were lysed by directly adding 50 μL of RLT buffer (Qiagen). […]
(§2) RNA was DNase treated and converted into cDNA using the High-Capacity RNA-to-cDNA kit (Thermo Fisher Scientific). The following FAM-labeled TaqMan Real-Time PCR assays (Thermo Fisher Scientific) were used to quantify gene expression: SLC16A11 (Hs00601062_g1), SLC16A13 (Hs00416832_m1), SLC16A1 (Hs01560299_m1). […] Droplets were generated and analyzed using a QX200 Droplet Generator and Reader system (BioRad). Data was extracted using QuantaSoft (BioRad) and analyzed using Microsoft Excel.

SLC16A1 [3] = assay: Compound treatment, SLC16A1 expression by ddPCR in SNU761 cells; type: cell-based, human; settings: 10 μM for 24 hours
Method: (§3) FIGS. 14A-14D provide graphs showing that mTOR inhibitors increase SLC16A11, but not SLC16A1 transcript levels. […] SLC16A11 (FIGS. 14A and 14B) and SLC16A1 (FIGS. 14C and 14D) expression was then assessed using droplet digital PCR (ddPCR). Bar plots depict relative fold-changes with respect to DMSO and error bars and standard deviations. Expression is normalized to housekeeping genes TBP or HPRT1.
(§4) A small number of the compounds that made the strongest positive connections to the SLC16A11 gene expression signature were selected and tested. […] Methotrexate was also included, which had been annotated as a dihydrofolate reductase inhibitor. SNU761 cells (derived from a human hepatocellular carcinoma) and NCIH716 cells (derived from a human cecum adenocarcinoma), which both express SLC16A11, were treated with the compounds. […]
as §2

SLC16A1 [4] = assay: Compound treatment, SLC16A1 expression by ddPCR in NCIH716 cells; type: cell-based, human; settings: 10 μM for 24 hours
Method: as §3, §4, §2

SLC16A11 [5] = assay: Compound treatment, SLC16A11 expression by ddPCR in primary human hepatocytes; type: cell-based; settings: vs DMSO
Method: (§5) SLC16A11 (denoted by A11 when normalized by TBP and A11* for HPRT1), SLC16A13 (A13), and SLC16A1 (A1) in comparison with DMSO treated cells.
(§6) Primary human hepatocytes were purchased from Bioreclamation IVT. Hepatocyte lot used was BHL. Cells were thawed and immediately resuspended in CP media (Bioreclamation IVT) supplemented with torpedo antibiotic (Bioreclamation IVT). Cell concentration and viability were assessed prior to use. Cells were grown in a humidified CO2 incubator, at 37° C.
as §1, with “time. […]” for “time.”
as §2

SLC16A13 = assay: Compound treatment, SLC16A13 expression by ddPCR in primary human hepatocytes; type: cell-based; settings: vs DMSO
Method: as §5, §6
as §1, with “time. […]” for “time.”
as §2

SLC16A1 [6] = assay: Compound treatment, SLC16A1 expression by ddPCR in primary human hepatocytes; type: cell-based; settings: vs DMSO
Method: as §5, §6
as §1, with “time. […]” for “time.”
as §2

SLC16A11 (A11) = assay: ddPCR based screening assay for modulators of SLC16A11 expression (Z′); type: cell-based, human; settings: SNU 761 cells; compound as positive control
From the text: As detailed herein above, SLC16A11 (A11) belongs to a family of monocarboxylate transporters. Expression of A11 was studied in SNU 761 cell lines. These liver cancer cells are ideal for studying SLC16A11 expression because A11 is expressed in higher quantity in liver cells, although expression of the gene in all tissues is extremely low. The 5 SNP risk haplotype causes lowered expression and interferes with protein-protein interactions between A11 and a cofactor protein, indicating loss of function. Therefore, increasing A11 expression in individuals with the risk haplotype is likely beneficial.
The quality of an assay can be quantified by Z′, a measure of how well the assay can differentiate between the positive and negative controls. Using the formula: […]
First the cells were treated with inhibitor compounds, their RNA was extracted, and that RNA was used as a template to create DNA. Then, the DNA was quantified using droplet digital PCR (ddPCR), analyzed and quantified using QuantaSoft™ (BioRad). […]
From the QuantaSoft scoring of each droplet, the means and standard deviations of SLC16A11 expression levels was determined in response to compound treatment. […] Points in light gray had the gene of interest and were scored as positive (FIG. 17C). SLC16A11 was scored in the graph. […]

panel of 260 kinases = settings: concentrations up to 10 μmol/L, cited from earlier work

In the case of `COc1ccc(-c2ccc3c(N4CCOC[C@@H]4C)nc(N4CCOC[C@@H]4C)nc3n2)cc1CO` [AZD-8055, [5-[2,4-Bis((3S)-3-methylmorpholin-4-yl)pyrido[2,3-d]pyrimidin-7-yl]-2-methoxyphenyl]methanol], the “SLC16A11 (A11) transcript levels, dose response curve” value (SLC16A11 [1]; FIG. 16 top panel) is reported as “increase”, the “SLC16A11 transcript levels, compound treated compared to DMSO treated cells” value (SLC16A11 [1]; same concentrations and treatment times as LINCS, ddPCR) is reported as “about 3 fold” and the “avg_fc (SLC16A11 expression, compound treated vs DMSO treated cells)” value (SLC16A11 [1]; same doses and treatment times as in the LINCS dataset) is reported as 4.253. The “increase in SLC16A11 expression, compound treated compared to DMSO treated cells” value (SLC16A11 [1]; unbiased test of 59 top and 20 middle LINCS compounds, LINCS doses and times) was roughly 4 fold, the “SLC16A11 transcript levels, compound treated compared to DMSO treated cells” value (SLC16A11 [2]) was “about 3 fold” and the “SLC16A1 expression with respect to DMSO” value (SLC16A1 [3]) was “slight decrease”. The “SLC16A1 expression with respect to DMSO” value (SLC16A1 [4]) was “slight decrease”, the SLC16A11 expression (SLC16A11 [5]) was “increase SLC16A11 expression” and the SLC16A13 expression (SLC16A13) was “decreased”. The SLC16A1 expression (SLC16A1 [6]) was “decreased”, the “A11 expression in manual ddPCR assay” value (SLC16A11 (A11)) was “increased” and the “activity against a panel of 260 kinases” value (panel of 260 kinases) was “not show significant activity”. For the same compound, the “activity against a panel of 260 kinases” value (panel of 260 kinases; listed as AZD8055) was “no significant activity”.
